Test results as given in patent US20140050674A1, “Method for Improving Penetration or Long Term Adhesion of Compositions to Dental Tissues and Compositions Usable in Said Method” (University of Oulu, priority 2011, published 2014).

Legend:
MDPC-23 cells [1] = assay: Cell death by necrosis (flow cytometry); format: cell-based; conditions: 24 h
Description: (§1) Immortalized odontoblast-like MDPC-23 cell line, frequently used for the evaluation of cytotoxicity of dental materials, was used to analyse the effect of different DMSO concentrations on pulpal cell viability. The cell culturing and methodology followed that described by Aranha et al. (2011). Briefly, DMEM culture medium with different concentrations of DMSO (0.05, 0.1, 0.3, 0.5 and 1.0 mM) were placed in contact with MDPC-23 cells (5×10^4 cells/cm^2) for 24 h. Pure DMEM was used in the control group. Twelve replicates were prepared in each group, except for flow cytometry analysis (n=8). Viable cell number (Trypan Blue), cell metabolism (production of succinic dehydrogenase enzyme-SDH, MTT assay) and cell death by necrosis (flow cytometry) were evaluated as described before (Ribeiro et al. 2010, Aranha et al. 2011).

[2] = system: gelatinases MMP-2 and MMP-9; assay: Gelatin zymography; format: biochemical, human
Description: Gelatin zymography was performed in 10% SDS-PAGE containing 1 mg/ml labelled gelatin in a usual fashion (Invitrogen, Carlsbad, Calif., USA) (O'Grady et al. 1984). After the electrophoresis, SDS was removed by 2.5% Triton X-100 to renature the gelatinases. Gels were then incubated overnight at 37° C. in 50 mM Tris-HCl buffer (5 mM CaCl2, 1 μM ZnCl2, 0.02% NaN3, pH 7.5) zymography incubation buffer with 0%, 0.1%, 2.5%, 5%, 10% or 20% of DMSO to observe the effect of DMSO concentration on the MMP activity. The degradation of gelatin was visualized under UV light. Gels were also stained with 0.5% Coomassie Blue R-250. The intensities of the bands were quantified by ScionImage software (Scion Corporation, Frederick, Mass., USA). The analysis was done as triplicates, and relative amounts against 0% DMSO were calculated.

MMP-2 [3] = target: T1, MMP-2 (Homo sapiens, UniProt P08253); assay: EnzChek Gelatinase/Collagenase Assay Kit; format: biochemical; conditions: 3% DMSO; APMA-activated MMP-2; 24 h incubation
T1 construct: made in house
T1 sequence (P08253 110-660): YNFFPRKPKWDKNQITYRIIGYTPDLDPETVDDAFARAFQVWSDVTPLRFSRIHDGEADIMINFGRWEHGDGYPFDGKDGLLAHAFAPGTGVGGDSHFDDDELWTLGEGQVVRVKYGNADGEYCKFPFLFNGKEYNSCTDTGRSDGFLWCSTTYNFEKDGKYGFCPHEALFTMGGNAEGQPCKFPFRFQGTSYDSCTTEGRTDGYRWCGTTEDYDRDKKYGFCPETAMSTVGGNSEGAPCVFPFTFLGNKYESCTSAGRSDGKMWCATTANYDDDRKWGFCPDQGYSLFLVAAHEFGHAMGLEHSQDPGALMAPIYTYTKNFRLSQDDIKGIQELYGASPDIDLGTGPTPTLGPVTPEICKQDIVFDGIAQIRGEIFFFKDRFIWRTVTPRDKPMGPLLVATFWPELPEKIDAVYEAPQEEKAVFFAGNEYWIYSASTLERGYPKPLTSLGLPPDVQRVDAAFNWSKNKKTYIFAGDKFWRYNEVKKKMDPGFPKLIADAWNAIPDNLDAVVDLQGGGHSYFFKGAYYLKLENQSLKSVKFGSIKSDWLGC
Description: (§2) EnzChek Gelatinase/Collagenase Assay Kit (Molecular Probes, Eugene, Oreg., USA) was used to detect the effect of DMSO on the gelatinolytic activities of MMP-2 and -9 according to manufacturer's protocol. Briefly, 3 ng of MMP-2 (purified from cell culture media), 3 ng MMP-9 (purified from cell culture media), and 5 ng of recombinant MMP-9 (Chemicon) were diluted into the reaction buffer (50 mM Tris-HCl, 150 mM NaCl, 5 mM CaCl2, 0.2 mM NaN3, pH 7.6) and incubated with quenched fluorescein-conjugated gelatin (50 μg/ml) and 0%, 0.01%, 0.1%, 0.5%, 1%, 2%, 3%, 4% or 5% of DMSO in a black-walled 96 well microplate at RT in dark. Fluorescent intensity indicating the gelatinolysis was measured at multiple time points with Fluoromax2/Micromax fluorometer (ISA Jobin Yvon-Spex, Edison, N.J., USA). Analyses were performed as quadruplicates. The relative intensities were calculated against 0% of DMSO.

MMP-2 [4] = assay: EnzChek Gelatinase/Collagenase Assay Kit; format: biochemical; conditions: 4 to 5% DMSO; non-activated (no APMA) and activated (APMA) MMP-2
Description: as §2

MDPC-23 cells [5] = assay: Viable cell number (Trypan Blue); format: cell-based; conditions: 24 h
Description: as §1

MDPC-23 cells [6] = assay: Cell metabolism (SDH production, MTT assay); format: cell-based; conditions: 24 h
Description: as §1

[7] = system: dentin collagenolytic enzymes; assay: Hydroxyproline release from demineralized dentin beams; format: biochemical
Description: Type I collagen contains about 10 mass % hydroxyproline (HYP), an amino acid almost non-existent in other proteins. Detection of HYP release form demineralized dentin beams was used to evaluate whether DMSO would be effective in inhibiting MMPs in dentin collagen matrix, using a method described in Carrilho et al. 2009. Seventy-six dentin beams (1 mm×1 mm×9 mm) were divided into four groups (n=19 per group) and demineralized. Each beam was individually incubated in a polypropylene tubes with 1 ml of medium containing 50 mmol/L HEPES, 5 mmol/L CaCl2 2H2O, 0.001 mmol/L ZnCl2, 150 mmol/L NaCl, and 3 mmol/L NaN3, pH 7.2, that ensures availability of Zn- and Ca-ions for MMP function. The control samples were incubated in a medium without DMSO: in two groups the beams were incubated with DMSO in medium with 0.001% and 0.01% concentrations. In one group, demineralized dentin beams were immersed in 5% DMSO for 15 minutes and then incubated in a medium without DMSO for the rest of the experiment. Tubes were incubated in a water-shaker bath at 37° C. for a week. Then the medium was completely removed and quantitated for HYP content according to the colorimetric absorbance method described by Jamall et al (1981). Fresh 1 mL of medium was replaced in each tube for additional three weeks of incubation, when the media was removed and analyzed for HYP content. HYP standards were prepared from a 1 mg/mL HYP stock solution in 50% isopropanol. The resulting amount of HYP (mg/mL) was used to estimate the percentage of solubilized (degraded) collagen assuming that 90% of the dry mass of demineralized dentin beams consisted of type I collagen and that 10 mass % of collagen is HYP (Carrilho et al. 2009).

## C[S+](C)[O-] [DMSO, dimethyl sulphoxide]
MDPC-23 cells [1]; 0.05 mM DMSO
  % Cell Death (necrosis, flow cytometry): 1.2 (0.8-1.6) a %
MDPC-23 cells [1]; 0.1 mM DMSO
  % Cell Death (necrosis, flow cytometry): 1.3 (0.9-1.6) a %
MDPC-23 cells [1]; 0.3 mM DMSO
  % Cell Death (necrosis, flow cytometry): 1.2 (0.6-1.6) a %
MDPC-23 cells [1]; 0.5 mM DMSO
  % Cell Death (necrosis, flow cytometry): 1.3 (0.8-1.5) a %
MDPC-23 cells [1]; 1.0 mM DMSO
  % Cell Death (necrosis, flow cytometry): 1.3 (0.8-1.6) a %
MDPC-23 cells [1]; 0.05-1.0 mM DMSO, p>0.05
  Cell death by necrosis vs control: no differences
[2]; 0.1-20% DMSO in incubation buffer, recombinant human MMP-2 and MMP-9
  Effect on gelatinase activity (disappearance of bands): inhibitory activity
[2]; 5% DMSO (FIG. 12, FIG. 13)
  MMP inhibition: up to 75.3%
[2]; 20% DMSO (FIG. 12, FIG. 13)
  MMP inhibition: up to 94.7%
MMP-2 [3]
  Inhibition of MMP-2 gelatinolytic activity: statistically significant inhibition
MMP-2 [4]
  Inhibition of MMP-2 gelatinolytic activity: theoretical maximum inhibition
MDPC-23 cells [5]; 0.05 mM DMSO
  Cell number (viable cells, Trypan Blue): 3.7 (0.9) a
MDPC-23 cells [5]; 0.1 mM DMSO
  Cell number (viable cells, Trypan Blue): 4.3 (1.1) a
MDPC-23 cells [5]; 0.3 mM DMSO
  Cell number (viable cells, Trypan Blue): 4.1 (1.4) a
MDPC-23 cells [5]; 0.5 mM DMSO
  Cell number (viable cells, Trypan Blue): 4.1 (0.9) a
MDPC-23 cells [5]; 1.0 mM DMSO
  Cell number (viable cells, Trypan Blue): 4.1 (1.3) a
MDPC-23 cells [5]; 0.05-1.0 mM DMSO, p>0.05
  Number of cells vs control: no differences
MDPC-23 cells [5]; direct contact, 0.05-1.0 mM DMSO
  Cytotoxicity to odontoblast-like cells: not cytotoxic or cytophatic
MDPC-23 cells [6]; 0.05 mM DMSO
  Cell metabolism (SDH production, MTT assay): 2.343 (2.287-2.387) ab
MDPC-23 cells [6]; 0.1 mM DMSO
  Cell metabolism (SDH production, MTT assay): 2.468 (2.359-2.557) a
MDPC-23 cells [6]; 0.3 mM DMSO
  Cell metabolism (SDH production, MTT assay): 2.484 (2.399-2.520) a
MDPC-23 cells [6]; 0.5 mM DMSO
  Cell metabolism (SDH production, MTT assay): 2.478 (2.294-2.542) ab
MDPC-23 cells [6]; 1.0 mM DMSO
  Cell metabolism (SDH production, MTT assay): 2.410 (2.119-2.501) ab
MDPC-23 cells [6]; 0.05-1.0 mM DMSO, not concentration-dependent
  Production of SDH enzyme vs control: Slight increase
[7]; 0.001% DMSO in medium, 4-week incubation
  HYP release into the medium: significantly decreased
[7]; 0.01% DMSO in medium, 4-week incubation
  HYP release into the medium: significantly decreased
[7]; 15 minute immersion in 5% DMSO prior the 4-week incubation
  HYP release into the medium: significantly decreased
[7]; DMSO (FIG. 14)
  Demineralized dentin collagen degradation by matrix enzymes: significant decrease in collagen degradation
